{"source": "patent US20240216395A1", "about": "“19-NOR C3,3-DISUBSTITUTED C21 -N-PYRAZOLYL STEROID FOR USE IN TREATING MAJOR DEPRESSIVE DISORDER AND […]” (priority 2021, published 2024)", "key": {"[1]": {"tested_on": "adult female subjects with severe postpartum depression (PPD)", "experiment": "Phase 3 PPD study (NCT02978326): safety, TEAEs and NNH", "format": "in vivo, human", "description": "Safety Endpoints: Safety and tolerability of study drug was evaluated by frequency of adverse events; severity, relatedness, and seriousness of adverse events; clinical laboratory measures, vital signs, ECGs; and concomitant medication usage. Suicidality was monitored using the C-SSRS.\nAdverse events were coded using Medical Dictionary for Regulatory Activities (MedDRA™) Version 19.1 or higher. […] The incidence of adverse events was also presented by maximum severity and relationship to study drug. Vital signs, clinical laboratory measures, ECG, concomitant medication usage, and C-SSRS data was summarized by treatment, where applicable. Out-of-range safety endpoints could be categorized as low or high, where applicable. Safety data was summarized and examined for possible relationships between subject characteristics and plasma Compound (1) concentrations, as appropriate. Suicidality data collected using the C-SSRS at baseline and at each visit during the active Treatment Period was listed for all subjects. The C-SSRS listings included behavior type and/or category for suicidal ideation and suicidal behavior of the C-SSRS.\nSustained Response or Remission was defined as continued categorization of a Responder/Remitter at both days 15 and 45. Tolerability and safety outcomes included number needed to harm (NNH) for discontinuation due to an AE, as well as individual safety events of interest. NNH was calculated for (1) AEs with incidence ≥2% with Compound (1) and higher rate than placebo, and (2) the proportion of patients in each treatment arm discontinuing the study drug due to an AE. 95% confidence intervals (CIs) were calculated based upon Wilson score intervals."}, "patients with MDD": {"tested_on": "patients with MDD", "experiment": "Phase 2 clinical trial of Compound (1) 30 mg in MDD (NCT03000530): TEAEs", "format": "in vivo, human", "excerpt": "The study design and results, if applicable, of the clinical trials identified by the NCT numbers are each incorporated by reference herein in its entirety.\nThe majority of patients receiving Compound (1) and experiencing a TEAE reported TEAEs mild and moderate in severity: clinical trial of Example 4 94%, Phase 2 clinical trial conducted by Applicant 100%, previous Phase 3 clinical trial conducted by Applicant 98%, and clinical trial of Example 1 95.0%."}, "[2]": {"tested_on": "nondependent, recreational users of CNS depressants", "experiment": "Abuse potential main study, treatment phase: TEAEs", "format": "in vivo, human", "description": "The main study consisted of 4 phases (FIG. 30B). The screening phase was a 1-day visit occurring within 21 days of the beginning of the qualification phase. The qualification phase was a 4-day, inpatient period to ensure participants could discriminate between alprazolam (active comparator) and placebo, and that they could tolerate the alprazolam 2-mg doses. Participants received single-oral doses of alprazolam 2 mg and placebo in a crossover manner 24 hours apart, and if they could discriminate between the two medications, they continued to the treatment phase. The treatment phase was a double-blind, active- and placebo-controlled, 6-way crossover design where participants were randomized equally to a single oral dose of 1 of 6 treatments: placebo, alprazolam (1.5 and 3 mg), and Compound (1) (30, 60, and 90 mg). The Compound (1) doses were based on the results from the first part, dose selection, and treatments were separated by 7 days. The follow-up phase was a 1-day visit occurring 7 (2) days after the treatment phase.\nSafety and tolerability endpoints included the frequency and severity of AEs and SAEs, the change from baseline in clinical laboratory assessments, vital signs, and ECG, and suicidality assessed by the Columbia-Suicide Severity Rating Scale (C-SSRS).\nThe dose selection safety set included all participants who received 1 dose of Compound (1). The main study qualification safety set included all participants who received ≥1 dose of alprazolam. For the treatment phase, the randomized set included all participants who were randomized and the safety set included all participants who received ≥1 dose of Compound (1) or alprazolam. The completer set included all participants in the randomized set who completed all treatment periods, had sufficient data for evaluation of the primary endpoint, and had ≥1 observation within 2 hours of Tmax for each treatment for Drug Liking VAS scores. […] The PK set included all participants in the treatment phase who received 1 dose of Compound (1) and had 1 PK sample after dosing."}, "[3]": {"tested_on": "synaptic and extrasynaptic GABAA receptors", "details": "in vitro; cited from earlier work"}, "[4]": {"details": "treatment phase, Compound (1) 30 mg (n = 65)"}, "[5]": {"details": "treatment phase, Compound (1) 60 mg (n = 66)"}, "[6]": {"details": "treatment phase, Compound (1) 90 mg (n = 67)"}}, "data": [{"smiles": "C[C@@]1(O)CC[C@H]2[C@H](CC[C@@H]3[C@@H]2CC[C@]2(C)[C@@H](C(=O)Cn4cc(C#N)cn4)CC[C@@H]32)C1", "note": "[Compound (1), 1-(2-((3R,5R,8R,9R,10S,13S,14S,17S)-3-hydroxy-3,13-dimethylhexadecahydro-1H-cyclopenta[a]phenanthren-17-yl)-2-oxoethyl)-1H-pyrazole-4-carbonitrile]", "values": [{"measurement": "Loss of consciousness or syncope", "setting": "[1]; 30 mg", "value": "no reports of loss of consciousness or syncope"}, {"measurement": "NNH vs placebo: AE leading to treatment discontinuation", "setting": "[1]; 30 mg", "value": "78 (ns)"}, {"measurement": "NNH vs placebo: Diarrhoea", "setting": "[1]; 30 mg", "value": "28 (ns)"}, {"measurement": "NNH vs placebo: Dizziness", "setting": "[1]; 30 mg", "value": "46 (ns)"}, {"measurement": "NNH vs placebo: Dry mouth (Gastrointestinal disorders)", "setting": "[1]; 30 mg", "value": "26 (ns)"}, {"measurement": "NNH vs placebo: Dry mouth (under Infections and infestations)", "setting": "[1]; 30 mg", "value": "41 (ns)"}, {"measurement": "NNH vs placebo: Fatigue", "setting": "[1]; 30 mg", "value": "41 (ns)"}, {"measurement": "NNH vs placebo: Pain in extremity", "setting": "[1]; 30 mg", "value": "84 (ns)"}, {"measurement": "NNH vs placebo: Sedation", "setting": "[1]; 30 mg", "value": "20 (ns)"}, {"measurement": "NNH vs placebo: Somnolence", "setting": "[1]; 30 mg", "value": "23 (ns)"}, {"measurement": "NNH vs placebo: Upper respiratory tract infection", "setting": "[1]; 30 mg", "value": "16 (ns)"}, {"measurement": "Overall tolerability", "setting": "[1]; 30 mg", "value": "generally well tolerated"}, {"measurement": "Diarrhoea", "setting": "[1]; 30 mg (N = 78)", "value": "5 (6.4%) n (%)"}, {"measurement": "Dizziness", "setting": "[1]; 30 mg (N = 78)", "value": "6 (7.7%) n (%)"}, {"measurement": "Dry mouth (Gastrointestinal disorders)", "setting": "[1]; 30 mg (N = 78)", "value": "3 (3.8%) n (%)"}, {"measurement": "Dry mouth (listed under Infections and infestations)", "setting": "[1]; 30 mg (N = 78)", "value": "3 (3.8%) n (%)"}, {"measurement": "Fatigue", "setting": "[1]; 30 mg (N = 78)", "value": "3 (3.8%) n (%)"}, {"measurement": "Pain in extremity", "setting": "[1]; 30 mg (N = 78)", "value": "2 (2.6%) n (%)"}, {"measurement": "Sedation", "setting": "[1]; 30 mg (N = 78)", "value": "4 (5.1%) n (%)"}, {"measurement": "Somnolence", "setting": "[1]; 30 mg (N = 78)", "value": "12 (15.4%) n (%)"}, {"measurement": "Subjects with an AE leading to treatment discontinuation", "setting": "[1]; 30 mg (N = 78)", "value": "1 (1.3%) n (%)"}, {"measurement": "Upper respiratory tract infection", "setting": "[1]; 30 mg (N = 78)", "value": "6 (7.7%) n (%)"}, {"measurement": "Patients with a TEAE whose TEAEs were mild and moderate in severity", "setting": "[1]; clinical trial of Example 4", "value": 94, "unit": "%"}, {"measurement": "Diarrhea", "setting": "patients with MDD; 30 mg (N = 45)", "value": "0 n (%)"}, {"measurement": "URTI", "setting": "patients with MDD; 30 mg (N = 45)", "value": "0 n (%)"}, {"measurement": "Patients with a TEAE whose TEAEs were mild and moderate in severity", "setting": "patients with MDD; Phase 2 clinical trial", "value": 100, "unit": "%"}, {"measurement": "Severe TEAEs and deaths", "setting": "[2]; 30, 60, 90 mg single doses", "value": "no reported severe TEAEs nor deaths"}, {"measurement": "Back pain (TEAE)", "setting": "[2]; [4]", "value": 0, "unit": "n"}, {"measurement": "Confusional state (TEAE)", "setting": "[2]; [4]", "value": 0, "unit": "n"}, {"measurement": "Diarrhea (TEAE)", "setting": "[2]; [4]", "value": 0, "unit": "n"}, {"measurement": "Feeling drunk (TEAE)", "setting": "[2]; [4]", "value": 0, "unit": "n"}, {"measurement": "Fine motor skill dysfunction (TEAE)", "setting": "[2]; [4]", "value": 0, "unit": "n"}, {"measurement": "Hiccups (TEAE)", "setting": "[2]; [4]", "value": 0, "unit": "n"}, {"measurement": "Irritability (TEAE)", "setting": "[2]; [4]", "value": 0, "unit": "n"}, {"measurement": "Lacrimation increased (TEAE)", "setting": "[2]; [4]", "value": 0, "unit": "n"}, {"measurement": "Swelling face (TEAE)", "setting": "[2]; [4]", "value": 0, "unit": "n"}, {"measurement": "Tremor (TEAE)", "setting": "[2]; [4]", "value": 0, "unit": "n"}, {"measurement": "Upper respiratory tract infection (TEAE)", "setting": "[2]; [4]", "value": 0, "unit": "n"}, {"measurement": "Back pain (TEAE)", "setting": "[2]; [5]", "value": 0, "unit": "n"}, {"measurement": "Confusional state (TEAE)", "setting": "[2]; [5]", "value": 0, "unit": "n"}, {"measurement": "Fine motor skill dysfunction (TEAE)", "setting": "[2]; [5]", "value": 0, "unit": "n"}, {"measurement": "Hiccups (TEAE)", "setting": "[2]; [5]", "value": 0, "unit": "n"}, {"measurement": "Irritability (TEAE)", "setting": "[2]; [5]", "value": 0, "unit": "n"}, {"measurement": "Lacrimation increased (TEAE)", "setting": "[2]; [5]", "value": 0, "unit": "n"}, {"measurement": "Swelling face (TEAE)", "setting": "[2]; [5]", "value": 0, "unit": "n"}, {"measurement": "Upper respiratory tract infection (TEAE)", "setting": "[2]; [5]", "value": 0, "unit": "n"}, {"measurement": "Back pain (TEAE)", "setting": "[2]; [6]", "value": 0, "unit": "n"}, {"measurement": "Diarrhea (TEAE)", "setting": "[2]; [6]", "value": 0, "unit": "n"}, {"measurement": "Hiccups (TEAE)", "setting": "[2]; [6]", "value": 0, "unit": "n"}, {"measurement": "Lacrimation increased (TEAE)", "setting": "[2]; [6]", "value": 0, "unit": "n"}, {"measurement": "Upper respiratory tract infection (TEAE)", "setting": "[2]; [6]", "value": 0, "unit": "n"}, {"measurement": "GABAA receptor binding and current potentiation", "setting": "[3]", "value": "bind to both synaptic and extrasynaptic GABAA receptors, potentiating both phasic and tonic currents"}]}]}
